From patent US20160185820A1, “PRO[…], A GENE TRANSFER ENHANCER” (PHARIS BIOTEC GMBH, priority 2013, published 2016)
Non-standard residues stand in square brackets, D forms with d. Residues, ends and D or L forms follow the SMILES beside them. No end group written: not given here. pGlu = O=C1CC[C@@H](C(=O)O)N1

Assays:
[1] = Storage stability in aqueous solution (HPLC chromatogram, FIG. 1); assay type: physicochemical; settings: storage at 4° C. for 13 days
Procedure: In the left column of FIG. 1 (HPLC chromatogram), results for protransduzin A upon storage for 0-13 days at −20° C. and at 4° C. (13 days) are compared with the results for protransduzin B under the same conditions.

[2] = test system: cells; assay: Transduction of cells with protransduzin B; assay type: cell-based; settings: 25 μg/ml protransduzin B, cells incubated 2 days
Procedure: Dissolve 0.5 mg of protransduzin B in 50 μl of DMSO. Then add 450 μl of PBS to the solution, fibrils forming within 3 min. Add this stock solution (1 mg/ml) to the vectors to obtain a concentration of protransduzin B of 25 μg/ml. Vortex the solution for 1 min, then centrifuge with 5000 g for 5 min. The supernatant is discarded, and the pellet is suspended in a little PBS and added to the cells. The cells are incubated in an incubator for 2 days.

Question: Which “degradation upon storage (HPLC peak height)” value [1] does the source give for `CC[C@H](C)[C@H](NC(=O)[C@H](CCCCN)NC(=O)[C@H](CS)NC(=O)[C@@H]1CCC(=O)N1)C(=O)N[C@@H](CCCCN)C(=O)N[C@@H](CCC(N)=O)C(=O)N[C@H](C(=O)N[C@H](C(=O)N[C@@H](CC(N)=O)C(=O)N[C@@H](CCSC)C(=O)N[C@@H](Cc1c[nH]c2ccccc12)C(=O)N[C@@H](CCC(N)=O)C(=O)O)[C@@H](C)CC)[C@@H](C)CC` [protransduzin B] ([pGlu]CKIKQIINMWQ-OH) here?
Answer: Its value is “hardly degraded at all”.

Question: And the cells transduced [2]?
Answer: The cells transduced was “Up to 96%”.

Question: What about the transduction rate [2] of the same compound?
Answer: Its transduction rate is “significantly enhanced”.

Question: Which “degradation upon storage (HPLC peak height)” value [1] does the source give for “QCKIKQIINMWQ [protransduzin A, reference compound]” here?
Answer: The value was “degraded almost to one half”.
